Test results taken from US20090192226A1, “Materials and Methods for Treatment of Pathological Ocular Vascular Proliferation” (priority 2007, published 2009).
Residues, ends and D or L forms follow the SMILES beside them.

Tests used:
[1] = test system: vascular endothelial growth factor (VEGF); test: retinal cell culture model, vascular endothelial growth factor (VEGF); assay type: cell-based
[2] = test system: retinal cell culture model; test: retinal cell culture model, transepithelial resistance (TER); assay type: cell-based
[3] = test system: pups undergoing the OIR model; test: OIR model in pups, oral gavage: pre-retinal neovascularization, vaso-obliteration, vascular density; assay type: in vivo, mouse; conditions: for reduction in pre-retinal neovascularization relative to vehicle / area of vaso-obliteration: OIR pups; for reduction in pre-retinal neovascularization relative to vehicle: gavaged twice daily P12-P17, H&E cross-sections on P17; for area of vaso-obliteration: gavaged twice daily P12-P17, assessed in P17 pups, vehicle 30.4±7.9%
Text: Retinopathy of prematurity (ROP) is the major cause of blindness in children. Supplementation with arginine or glutamine results in improved clinical outcomes in premature infants. In this study the protective effect of oral administration of Arg-Gln alone and in combination with DHA was examined in pups undergoing the OIR model. METHODS: Nursing dams and pups were returned to normal room air on P12 (postnatal day 12) and gavaged twice daily with: Arg-Gln, DHA, Arg-Gln+DHA or vehicle (P12-P17). Normoxic pups were treated in an identical manner. On P17 the pups were perfused with FITC-labeled dextran. One eye was embedded in paraffin, cross-sectioned and H&E (hematoxylin and eosin) stained for analysis of pre-retinal neovascularization. The retina from the second eye was removed and underwent microscopic analysis for the vessel regrowth, which was evaluated by vessel density.

Compound | vascular endothelial growth factor (VEGF) [1] | transepithelial resistance (TER) [2] | pre-retinal neovascularization (result in words) ([3]; OIR mouse model, conclusions) | vaso-obliteration (result in words) ([3]; OIR mouse model, conclusions) | intra-retinal vascular density, a measure of vascular regrowth ([3]; OIR pups following hyperoxia exposure, P17, compared to vehicle treated and normoxic pups) | reduction in pre-retinal neovascularization relative to vehicle [3] | area of vaso-obliteration [3]
N=C(N)NCCC[C@H](N)C(=O)N[C@@H](CCC(N)=O)C(=O)O [Arg-Gln dipeptide, arginyl-glutamine] (H-Arg-Gln-OH) | decreased | increased | dramatically inhibited | reduced | restored | 35±1% | 4.8±1.0%
CC/C=C\C/C=C\C/C=C\C/C=C\C/C=C\C/C=C\CCC(=O)O [DHA, decosahexaenoic acid] |  |  |  |  |  | 45±2% | 3.6±1.3%
